The values that follow come from patent publication US10696639B2, “Heterocyclic compounds as HIV protease inhibitors” (Merck Sharp & Dohme Corp., priority 2016, dated 2020).

The target of the assay is T1, wild-type HIV-1 protease (Human immunodeficiency virus type 1 group M subtype B, UniProt P04585).
T1 construct: Escherichia coli expressed wild-type HIV-1 protease protein; made in house; host or cells: Escherichia coli
Nature of the assay: Assay for Inhibition of Microbial Expressed HIV Protease. The assay is classed as biochemical. Conditions: E. coli expressed wild-type HIV-1 protease, peptide substrate cleavage, LC-MS readout; mean of at least two independent experiments; read-out: HIV Pr Enzyme HIV1 PR IC50. The procedure:
Assay for Inhibition of Microbial Expressed HIV Protease
Inhibition of Escherichia coli expressed wild-type HIV-1 protease protein was carried out with a peptide substrate [Val-Ser-Gln-Asn-(βnaphtyl)Ala-Pro-Ile-Val]. The inhibitor compound was preincubated with HIV-1 protease enzyme in assay buffer (50 mM sodium acetate, pH 5.5, 100 mM NaCl, and 0.1% BSA) for 30 minutes at room temperature. Peptide substrate was added to […] in a total volume of 20 μL containing 20 pM HIV-1 protease (final) after which the reaction was incubated for 1 hour at 30° C. The reaction was quenched by the addition of formic acid and HIV protease inhibitor indinavir to 0.012% and 150 nM final concentrations, respectively. Product formation was determined after separation of product and substrate on a ZORBAX Eclipse XDB-C18 column (Aligent Technologies, Santa Clara, Calif., USA) connected to an API 4000™ mass spectrometer (AB Sciex, Pte. Ltd., Concord Ontario, Canada) with multiple reaction monitoring (transitions were 644.5/428.9 and 615.4/422.2 (M1/M3) for product and indinavir respectively). The extent of inhibition of the reaction was determined from the peak area of the products. Analysis of the products, independently synthesized, provided quantitation standards and confirmation of the product composition.
On to `CC1(OC(=O)N[C@@H](Cc2ccccc2)C(=O)NCCCCN2C(=N)NC(c3ccccc3)(c3ccccc3)C2=O)CC1` [Example 23, N-[4-(2-imino-5-oxo-4,4-diphenylimidazolidin-1-yl)butyl]-N-alpha-{[(1-methylcyclopropyl)oxy]carbonyl}-L-phenylalaninamide], for which the IC50 was 16 nM.
Then `N=C1NC(c2ccccc2)(c2ccccc2)C(=O)N1CCCCNC(=O)[C@@H](N)Cc1ccncc1` [Example 10, N-[4-(2-imino-5-oxo-4,4-diphenylimidazolidin-1-yl)butyl]-3-pyridin-4-yl-L-alaninamide], with 34 nM; and `COC(=O)N[C@@H](Cc1ccncc1)C(=O)NCCCCN1C(=N)NC(CCC(C)C)(c2ccccc2)C1=O` (stereo partly drawn) [Example 22, methyl [(1S)-2-({4-[2-imino-4-(3-methylbutyl)-5-oxo-4-phenylimidazolidin-1-yl]butyl}amino)-2-oxo-1-(pyridin-4-ylmethyl)ethyl]carbamate], with 60 nM.
Then `COC(=O)N[C@@H](Cc1ccc(Cl)cc1)C(=O)N[C@@H](C)CCCN1C(=N)N[C@](CC(C)C)(c2ccccc2)C1=O` [Example 37, 4-chloro-N-{(1S)-4-[(4R)-2-imino-4-(2-methylpropyl)-5-oxo-4-phenylimidazolidin-1-yl]-1-methylbutyl}-N-alpha-(methoxycarbonyl)-L-phenylalamnamide], with 61 nM; and `COC(=O)N[C@@H](Cc1cccc2ccccc12)C(=O)N[C@@H](C)CCCN1C(=N)N[C@](CC(C)C)(c2ccccc2)C1=O` [Example 38, methyl [(1S)-2-({(1S)-4-[(4R)-2-imino-4-(2-methylpropyl)-5-oxo-4-phenylimidazolidin-1-yl]-1-methylbutyl}amino)-1-(naphthalen-1-ylmethyl)-2-oxoethyl]carbamate], with 23 nM; and `COC(=O)N[C@@H](Cc1ccncc1)C(=O)NCCCCCN1C(=N)NC(c2ccccc2)(c2ccccc2)C1=O` [Example 20, methyl [(1S)-2-{[5-(2-imino-5-oxo-4,4-diphenylimidazolidin-1-yl)pentyl]amino}-2-oxo-1-(pyridin-4-ylmethyl)ethyl]carbamate], with 91 nM.
The same measure for `COC(=O)N[C@@H](Cc1ccccc1)C(=O)NCCCCCN1C(=N)NC(c2ccccc2)(c2ccccc2)C1=O` [Example 15, N-[5-(2-imino-5-oxo-4,4-diphenylimidazolidin-1-yl)pentyl]-N-alpha-(methoxycarbonyl)-L-phenylalaninamide]: 98 nM.

By IC50 is commonly meant the concentration that inhibits the measured activity by half.
